According to patent US20250188068A1, “AMIDO CYCLOPROPYL DERIVATIVES AS LPA RECEPTOR INHIBITORS” (CHIESI FARMACEUTICI S.P.A., priority 2022, published 2025):

Target: T1, human recombinant LPA1 expressed in CHO cells (Homo sapiens, UniProt Q92633)
T1 construct: expressed in transfected cells; host or cells: CHO cells (CHO-hLPA1 cell line)
Test: FLIPR calcium mobilization assay, LPA1 antagonism in CHO-hLPA1 cells
Assay type: cell-based
Conditions: inhibition of LPA EC80 Ca2+ response, 30 min pre-incubation, range of activity
Method: The effectiveness of compounds of the present invention as LPA1 antagonist can be determined at the human recombinant LPA1 expressed in CHO cells, using a FLIPR assay in 384 well format.
CHO-hLPA1 cell lines are cultured in a humidified incubator at 5% CO2 in DMEM/F-12 (1:1) MIXTURE with 2 mM Glutamax, supplemented with 10% of Foetal Bovine Serum, 1 mM Sodium Pyruvate, 11 mM Hepes and 1× Penicillin/Streptomycin. CHO hLPA1 cells are seeded into black walled clear-bottom 384-well plates (#781091, Greiner Bio-One GmbH) at a density of 7,500 cells per well in 50 μl culture media and grown overnight in a 37° C. humidified CO2-incubator. Serial dilutions (1:3 or 1:4, 11 points CRC) of compounds are performed in 100% DMSO at 200× the final concentration. The compounds are diluted 1:50 prior to the experiment with Assay Buffer (20 mM HEPES, 145 mM NaCl, 5 mM KCl, 5.5 mM glucose, 1 mM MgCl2 and 2 mM CaCl2), pH 7.4 containing 0.01% Pluronic F-127) to obtain a solution corresponding to […] the final concentration in the assay (4×, 2% DMSO). The final concentration of DMSO in the assay will be 0.5% in each well. Medium is removed by aspiration and cells are then incubated with 30 μl of a loading solution containing 5 μM of the cytoplasmic Ca2+ indicator Cal-520 AM in Assay Buffer containing 2.5 mM probenecid for 30 min at 37° C. incubator (cell loading). The loaded cell plates are transferred into the FLIPR instrument and calcium responses are monitored during the on-line addition protocols. For testing of compounds, after the cell loading, 10 μl/well of 4× antagonists' solution was added onto the cells. After 30 min pre-incubation (at 37° C.), 10 μl/well of 5× concentrated LPA EC80 was added and Ca2+ mobilization responses was followed during the on-line addition protocol. Intracellular peak fluorescence values subtracted by baseline fluorescence are exported and analysed to determine IC50 values, respectively. The calcium response is expressed as percentage of the maximal inhibition of the EC80 agonist response.
The raw data obtained in unstimulated controls (DMSO, no LPA) are set as “100% inhibition”, while the raw data obtained in negative controls, i.e. in the absence of compounds and stimulating with LPA EC80, are set as “0% inhibition”.
The raw data (peak height expressed as relative fluorescence units) are normalized and transformed into “percent of inhibition”. Curve fitting and pIC50 (−Log IC50) estimations are carried out using a four-parameter logistic model using XLfit Software.

T1 sequence (Q92633 whole entry): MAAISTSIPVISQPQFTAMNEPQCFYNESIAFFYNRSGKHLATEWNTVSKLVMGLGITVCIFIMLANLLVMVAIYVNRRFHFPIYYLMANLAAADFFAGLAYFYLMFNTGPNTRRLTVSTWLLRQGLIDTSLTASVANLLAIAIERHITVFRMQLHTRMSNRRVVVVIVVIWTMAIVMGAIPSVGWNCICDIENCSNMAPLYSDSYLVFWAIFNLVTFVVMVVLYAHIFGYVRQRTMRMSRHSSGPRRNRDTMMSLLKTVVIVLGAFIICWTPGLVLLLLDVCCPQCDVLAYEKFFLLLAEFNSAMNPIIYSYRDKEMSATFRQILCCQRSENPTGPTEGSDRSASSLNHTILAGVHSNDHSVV

SMILES | IC50 [nM]
Cc1noc(-c2ccc(NC(=O)C3C(c4nnn[nH]4)C3(F)F)cc2)c1NC(=O)O[C@H](C)c1ccccc1Cl (mixture of isomers) [Compound 13, (R)-1-(2-chlorophenyl)ethyl (5-(4-(2,2-difluoro-3-(1H-tetrazol-5-yl)cyclopropane-1-carboxamido)phenyl)-3-methylisoxazol-4-yl)carbamate, mix of Trans diastereomers] | < 50
Cc1nc(-c2onc(C)c2NC(=O)O[C@H](C)c2ccccc2Cl)ccc1NC(=O)C1C(c2nnn[nH]2)C1(F)F (mixture of isomers) [Compound 14, (R)-1-(2-chlorophenyl)ethyl (5-(5-(2,2-difluoro-3-(1H-tetrazol-5-yl)cyclopropane-1-carboxamido)-6-methylpyridin-2-y1)-3-methylisoxazol-4-yl)carbamate, mix of Trans diastereomers] | < 50
Cc1nc(-c2onc(C)c2NC(=O)O[C@H](C)c2ccccc2Cl)ccc1CNC(=O)C1C(C(=O)O)C1(F)F (mixture of isomers) [Compound 16, 3-(((6-(4-((((R)-1-(2-chlorophenyl)ethoxy)carbonyl)amino)-3-methylisoxazol-5-yl)-2-methylpyridin-3-yl)methyl)carbamoyl)-2,2-difluorocyclopropane-1-carboxylic acid, mix of Cis diastereomers] | 50 to 100
Cc1nc(-c2onc(C)c2NC(=O)O[C@H](C)c2ccccc2Cl)ccc1CNC(=O)C1C(C(=O)O)C1(F)F (mixture of isomers) [Compound 17, 3-(((6-(4-((((R)-1-(2-chlorophenyl)ethoxy)carbonyl)amino)-3-methylisoxazol-5-yl)-2-methylpyridin-3-yl)methyl)carbamoyl)-2,2-difluorocyclopropane-1-carboxylic acid, mix of Trans diastereomers] | < 50
Cc1nc(-c2onc(C)c2CNc2nccc(C3CCCCC3)n2)ccc1NC(=O)[C@@H]1[C@@H](C(=O)O)C1(F)F (racemic) [Compound 18, 3-((6-(4-(((4-cyclohexylpyrimidin-2-yl)amino)methyl)-3-methylisoxazol-5-yl)-2-methylpyridin-3-yl)carbamoyl)-2,2-difluorocyclopropane-1-carboxylic acid, mix of Trans diastereomers] | < 50
Cc1noc(-c2ccc(NC(=O)C3C(C(=O)O)C3(F)F)cn2)c1NC(=O)O[C@H](C)c1ccccc1Cl (single isomer, unassigned) [Compound 5] | < 50
Cc1noc(-c2ccc(N(C)C(=O)C3C(C(=O)O)C3(F)F)cc2)c1NC(=O)O[C@H](C)c1ccccc1Cl (single isomer, unassigned) [Compound 8] | 100 to 200
Cc1noc(-c2ccc(N(C)C(=O)C3C(C(=O)O)C3(F)F)cc2)c1NC(=O)O[C@H](C)c1ccccc1Cl (single isomer, unassigned; diastereomer 2) [Compound 9] | 50 to 100
Cc1nc(-c2onc(C)c2Nc2cncc(OC(C)C)n2)ccc1NC(=O)C1C(C(=O)O)C1(F)F (single isomer, unassigned; diastereomer 2) [Compound 11] | < 50
Cc1nc(-c2onc(C)c2CNc2nccc(C3CCCCC3)n2)ccc1NC(=O)C1C(C(=O)O)C1(F)F (single isomer, unassigned; enantiomer 1) [Compound 19, Single Enantiomer 1 of Trans-3-((6-(4-(((4-cyclohexylpyrimidin-2-yl)amino)methyl)-3-methylisoxazol-5-yl)-2-methylpyridin-3-yl)carbamoyl)-2,2-difluorocyclopropane-1-carboxylic acid] | < 50
Cc1nc(-c2onc(C)c2NC(=O)O[C@H](C)c2ccccc2Cl)ccc1NC(=O)[C@@H]1[C@@H](C(=O)O)C1(F)F [Compound 1, (1S,3S)-3-((6-(4-((((R)-1-(2-chlorophenyl)ethoxy)carbonyl)amino)-3-methylisoxazol-5-yl)-2-methylpyridin-3-yl)carbamoyl)-2,2-difluorocyclopropane-1-carboxylic acid] | < 50
Cc1nc(-c2onc(C)c2NC(=O)O[C@H](C)c2ccccc2Cl)ccc1NC(=O)[C@H]1[C@H](C(=O)O)C1(F)F [Compound 2, (1R,3R)-3-((6-(4-((((R)-1-(2-chlorophenyl)ethoxy)carbonyl)amino)-3-methylisoxazol-5-yl)-2-methylpyridin-3-yl)carbamoyl)-2,2-difluorocyclopropane-1-carboxylic acid] | < 50
Cc1nc(-c2onc(C)c2NC(=O)O[C@H](C)c2ccccc2Cl)ccc1NC(=O)C1C(C(=O)O)C1(F)F (stereo partly drawn) [Compound 4, 3-((6-(4-((((R)-1-(2-chlorophenyl)ethoxy)carbonyl)amino)-3-methylisoxazol-5-yl)-2-methylpyridin-3-yl)carbamoyl)-2,2-difluorocyclopropane-1-carboxylic acid] | < 50
Cc1nc(-c2onc(C)c2CNc2nccc(-c3ccsc3)n2)ccc1NC(=O)[C@@H]1[C@@H](C(=O)O)C1(F)F [Compound 21, (1S,3S)-2,2-difluoro-3-((2-methyl-6-(3-methyl-4-(((4-(thiophen-3-yl)pyrimidin-2-yl)amino)methyl)isoxazol-5-yl)pyridin-3-yl)carbamoyl)cyclopropane-1-carboxylic acid] | < 50

Second part, the compound after the results:

IC50 [nM] | SMILES
100 to 200 | Cc1noc(-c2ccc(NC(=O)[C@@H]3[C@@H](C(=O)O)C3(F)F)cc2)c1COC(=O)N(C)C1CCCC1 (racemic) [Compound 36, 3-((4-(4-(((cyclopentyl(methyl)carbamoyl)oxy)methyl)-3-methylisoxazol-5-yl)phenyl)carbamoyl)-2,2-difluorocyclopropane-1-carboxylic acid, mix of Trans diastereomers]
< 50 | Cc1nc(-c2nnn(C)c2NC(=O)O[C@H](C)c2ccccc2Cl)ccc1NC(=O)C1C(C(=O)O)C1(F)F (single isomer, unassigned) [Compound 32]
< 50 | Cc1nc(-c2snc(C)c2NC(=O)O[C@H](C)c2ccccc2Cl)ccc1NC(=O)C1C(C(=O)O)C1(F)F (single isomer, unassigned; diastereomer 1) [Compound 31]
100 to 200 | Cc1nc(-c2sccc2NC(=O)O[C@H](C)c2ccccc2Cl)ccc1NC(=O)C1C(C(=O)O)C1(F)F (single isomer, unassigned; diastereomer 2) [Compound 30]
100 to 200 | Cc1nc(-c2onc(C)c2CNc2nccc(-c3ccco3)n2)ccc1NC(=O)[C@@H]1[C@@H](C(=O)O)C1(F)F [Compound 22, (1S,3S)-2,2-difluoro-3-((6-(4-(((4-(furan-2-yl)pyrimidin-2-yl)amino)methyl)-3-methylisoxazol-5-yl)-2-methylpyridin-3-yl)carbamoyl)cyclopropane-1-carboxylic acid]
< 50 | Cc1nc(-c2onc(C)c2CNc2nccc(-c3cnccn3)n2)ccc1NC(=O)[C@@H]1[C@@H](C(=O)O)C1(F)F [Compound 23, (1S,3S)-2,2-difluoro-3-((2-methyl-6-(3-methyl-4-(((4-(pyrazin-2-yl)pyrimidin-2-yl)amino)methyl)isoxazol-5-yl)pyridin-3-yl)carbamoyl)cyclopropane-1-carboxylic acid]
< 50 | Cc1nc(-c2onc(C)c2CNc2nccc(-c3cccs3)n2)ccc1NC(=O)[C@@H]1[C@@H](C(=O)O)C1(F)F [Compound 24, (1S,3S)-2,2-difluoro-3-((2-methyl-6-(3-methyl-4-(((4-(thiophen-2-yl)pyrimidin-2-yl)amino)methyl)isoxazol-5-yl)pyridin-3-yl)carbamoyl)cyclopropane-1-carboxylic acid]
